Literature values as cited in patent US5585357A, “Heteroaryloxymethyl ketones as interleukin-1βconverting enzyme inhibitors” (Sanofi Winthrop Inc., priority 1996, dated 1996).

Tests used:
[1] = rat, oral administration
[2] = animal model of ulcerative colitis
[3] = PG-APS model of arthritis in rats
[4] = small open-label human trial, subcutaneous
[5] = system: chronic myelogenous leukemia cells; conditions: cells removed from leukemia patients

CCOC(=O)C[C@H](NC(=O)[C@H](C)NC(=O)[C@@H](NC(=O)OCc1ccccc1)C(C)C)C(=O)COC(=O)c1c(Cl)cccc1Cl [SDZ 224-015]
inflammation and pyrexia [1]: Reduction of inflammation and pyrexia

IL-1ra: naturally occurring IL-1β receptor antagonist
tissue necrosis and number of inflammatory cells in the colon [2]: reduced tissue necrosis and the number of inflammatory cells in the colon | joint swelling [3]: supresses joint swelling | efficacy in Rheumatoid Arthritis [4]: shows efficacy | colony growth [5]: inhibit colony growth
